Assay results reported in the supplement of paper PMC10307832.

Experiments:
Assay in all cases: relative viability (nuclei count vs DMSO), 5 days (fraction); higher = more cells survive
TPCA-1 + Foretinib = compound: C1=CC(=CC=C1C2=CC(=C(S2)NC(=O)N)C(=O)N)F [TPCA-1] + COc1cc2c(Oc3ccc(NC(=O)C4(C(=O)Nc5ccc(F)cc5)CC4)cc3F)ccnc2cc1OCCCN1CCOCC1 [Foretinib] (partner 0.25 µM)
How it was run: (§1)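 Values are medians from duplicate plates. Each reflects relative viability, defined as the nuclei count of treated wells over that of vehicle wells. Lung cancer cell lines in 1536-well plates were pin-tool dosed one day after seeding with one drug alone or with a fixed anchor-drug dose plus five library-drug doses (not always all listed) in √10 steps, then fixed, stained and imaged at 4× after 5 days.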

TPCA-1 + Pemetrexed = compound: C1=CC(=CC=C1C2=CC(=C(S2)NC(=O)N)C(=O)N)F [TPCA-1] + Nc1nc2[nH]cc(CCc3ccc(C(=O)N[C@@H](CCC(=O)O)C(=O)O)cc3)c2c(=O)[nH]1 [Pemetrexed] (partner 0.2 µM)
How it was run: as §1

Lestaurtinib + Dasatinib = compound: C[C@]12O[C@H](C[C@]1(O)CO)n1c3ccccc3c3c4c(c5c6ccccc6n2c5c31)CNC4=O [Lestaurtinib] + Cc1nc(Nc2ncc(C(=O)Nc3c(C)cccc3Cl)s2)cc(N2CCN(CCO)CC2)n1 [Dasatinib] (partner 0.075 µM)
How it was run: as §1

[1] = compound: C[C@]12O[C@H](C[C@]1(O)CO)n1c3ccccc3c3c4c(c5c6ccccc6n2c5c31)CNC4=O [Lestaurtinib] + Nc1nc2[nH]cc(CCc3ccc(C(=O)N[C@@H](CCC(=O)O)C(=O)O)cc3)c2c(=O)[nH]1 [Pemetrexed] (partner 0.2 µM)
How it was run: as §1

Cell Line	relative viability (TPCA-1 + Foretinib; first compound 0.04 µM)	relative viability (TPCA-1 + Foretinib; first compound 0.1265 µM)	relative viability (TPCA-1 + Foretinib; first compound 0.4 µM)	relative viability (TPCA-1 + Foretinib; first compound 1.265 µM)	relative viability (TPCA-1 + Foretinib; first compound 4 µM)	relative viability (TPCA-1 + Pemetrexed; first compound 0.04 µM)	relative viability (TPCA-1 + Pemetrexed; first compound 0.1265 µM)	relative viability (TPCA-1 + Pemetrexed; first compound 0.4 µM)	relative viability (TPCA-1 + Pemetrexed; first compound 1.265 µM)	relative viability (TPCA-1 + Pemetrexed; first compound 4 µM)	relative viability (Lestaurtinib + Dasatinib; first compound 0.005 µM)	relative viability (Lestaurtinib + Dasatinib; first compound 0.01581 µM)	relative viability (Lestaurtinib + Dasatinib; first compound 0.05 µM)	relative viability (Lestaurtinib + Dasatinib; first compound 0.1581 µM)	relative viability (Lestaurtinib + Dasatinib; first compound 0.5 µM)	relative viability ([1]; first compound 0.005 µM)	relative viability ([1]; first compound 0.01581 µM)	relative viability ([1]; first compound 0.05 µM)	relative viability ([1]; first compound 0.1581 µM)	relative viability ([1]; first compound 0.5 µM)
201T	1.12	1.04	1.07	1.09	0.9	0.363	0.298	0.337	0.282	0.304	0.598	0.546	0.552	0.583	0.4	0.34	0.342	0.317	0.279	0.251
A549	0.989	1.03	0.947	0.826	0.764															
A-427	1.01	1.05	1.05	0.921	0.695	1.01	0.918	1.11	1.05	0.388	0.846	0.771	0.454	0.24	0.116	0.865	1.14	0.925	0.503	0.275
ABC-1	1.28	1.11	1.27	0.964	0.778						0.547	0.648	0.482	0.451	0.218					
BEN	0.654	0.549	0.671	0.679	0.303	0.701	0.661	0.739	0.99	0.513	0.3	0.322	0.265	0.313	0.184	0.782	0.841	0.663	0.555	0.358
CAL-12T	1.21	0.989	1.15	1.08	0.716	1.12	0.968	1.17	1.09	0.828	0.447	0.413	0.306	0.307	0.153	1.13	1.11	1.17	0.834	0.635
COR-L23	1.11	0.884	1.05	0.916	0.803	0.206	0.207	0.184	0.193	0.196	0.539	0.699	0.296	0.455	0.121	0.209	0.214	0.195	0.194	0.202
COR-L 105	1.01	1.1	1.23	1.2	0.983	1.02	0.931	1.23	1.03	0.777	0.32	0.32	0.245	0.258	0.145	1.06	1.19	1.14	0.743	0.631
Calu-6	0.946	0.877	0.862	0.853	0.659															
ChaGo-K-1	0.998	0.894	0.992	0.857	0.612	0.273	0.23	0.274	0.261	0.211	0.654	0.601	0.552	0.547	0.292	0.267	0.268	0.261	0.249	0.205
